From paper PMC5146859, “Phase 1/2 study of pacritinib, a next generation JAK2/FLT3 inhibitor, in myelofibrosis or other myeloid malignancies” (Journal of Hematology & Oncology, 2016)

System: patients with MF
Assay: Phase 2 MF Quality of Life and Symptoms Assessment Tool
Assay type: in vivo, human
Conditions: phase 2, 400 mg QD
Description: In phase 2, abdominal MRI to assess spleen and liver volume was performed on day 1 of cycles 1, 4, and 7 and then day 1 of every third cycle through cycle 25. Spleen size (length) was also assessed by manual palpation with each scheduled physical examination. The phase 2 study protocol was amended in September 2009 to include the MF Quality of Life and Symptoms Assessment Tool. […] The instrument was administered pre-dose on day 1 of cycles 1, 2, 4, 7, and 10 and then on day 1 of every third cycle through cycle 25.
The primary endpoint of the phase 2 component was the proportion of the efficacy population who achieved a ≥35% reduction in spleen volume from baseline at week 24, as measured by MRI. Spleen response rate was also assessed in terms of a ≥35% reduction in spleen volume by MRI up to week 24 and end of treatment and as a ≥50% reduction in spleen length by physical examination up to week 24 and end of treatment. Duration of response was not analyzed due to limitations in the proportion of responders. An exploratory endpoint was the proportion of patients with a ≥50% reduction in MF Quality of Life and Symptoms Assessment Tool at week 24 compared with baseline.

C1=C/COCc2cc(ccc2OCCN2CCCC2)Nc2nccc(n2)-c2cccc(c2)COC/1 [pacritinib, 11-(2-pyrrolidin-1-yl-ethoxy)-14,19-dioxa-5,7,26-triaza-tetracyclo[19.3.1.1(2,6). 1(8,12)]heptacosa-1(25),2(26),3,5,8,10,12(27),16,21,23-decaene]
Individual symptoms and overall quality of life score: Improvement was seen in each of the individual symptoms
Bone pain, Mean percent change from baseline at Week 24 (SD) (N = 11): -51.6 (43.04) %
Night sweats, Mean percent change from baseline at Week 24 (SD) (N = 11): -31.3 (85.45) %
Itching (pruritus), Mean percent change from baseline at Week 24 (SD) (N = 12): -62.6 (45.35) %
Abdominal pain, Mean percent change from baseline at Week 24 (SD) (N = 16): -54.2 (58.14) %
Overall quality of life, Mean percent change from baseline at Week 24 (SD) (N = 16): -38.1 (49.50) %
Early satiety, Mean percent change from baseline at Week 24 (SD) (N = 17): -42.2 (37.53) %
Fatigue – worst, Mean percent change from baseline at Week 24 (SD) (N = 18): -12.5 (63.55) %
Total symptom score, Mean percent change from baseline at Week 24 (SD) (N = 18): -27.5 (39.01) %
Evaluable patients with ≥50% reduction in MF Quality of Life and Symptom Assessment total score (week 24 (7/18)): 38.9%
